From patent publication US7132546B2, “Aniline derivatives or salts thereof and cytokine production inhibitors containing the same” (Ishihara Sangyo Kaisha, Ltd., priority 2000, dated 2006)

What was measured:
[1] = system: interferon γ (IFN-γ) production; assay: Cytokine production inhibitory effect: IFN-γ production by murine spleen cells treated with anti-mouse CD3 antibody and IL-2 (ELISA); type: cell-based, Balb/c mice; details: anti-CD3 antibody + IL-2, 40 to 48 hours, read-out: IFN-γ production inhibitory ratio (%); for inhibition at 100 ppm: test compound 100 ppm
Description: (§1) Murine spleen cells were treated with anti-mouse CD3 antibody and IL-2 to induce cytokine production. The test compounds were added to the cytokine production system to evaluate their inhibitory effect. Namely, anti-mouse CD3 antibody adjusted to from 10 to 20 μg/ml with borate buffered physiological saline (pH 8.5) was pipetted into a 96-well cell culture plate in an amount of 50 μl/well and left to stand at 4° C. for 18 hours. The unreacted solution was removed, washing with Hank's buffer solution was carried out once, and IL-2 adjusted to 10 ng/ml with a RPMI liquid containing 10% fetal bovine serum (FCS) was pipetted in an amount of 50 μl/well. For the negative control group, a solution alone without anti-CD3 antibody nor IL-2 was applied. Then, the diluted solution of each of the test compounds (concentration: 100 ppm unless otherwise specified) was pipetted in an amount of 50 μl/well, and a cell suspension of 1×10^7 cells/ml, prepared from spleen of Balb/c mice (female, 7 to 10 week old) was pipetted thereinto in an amount of 100 μl/well. After cultivation in an incubator (37° C., 5% carbon dioxide gas) for from 40 to 48 hours, the culture supernatant was recovered to measure the cytokine production amount by ELISA method.
(§2) With respect to interleukin 5 (IL-5) as a typical Th2 type cytokine and interferon γ (IFN-γ) as a typical Th1 type cytokine, measurements were carried out by the following methods, respectively. Namely, quantitative determination of IL-5 was carried out by the following ELISA method. First, rat anti-mouse IL-5 antibody (Endogen Code No. MM-550C) as a primary antibody was diluted with carbonate buffer solution (pH 9.5) to 1 μg/ml, and spread in a 96 well plate (IWAKI, Code No. 3860-096) in an amount of 50 μl/well for coating at 4° C. overnight (16 to 24 hours). Then, the plate was subjected to blocking at 37° C. for 2 hours by phosphate buffered physiological saline containing 10% FCS (pH 7.2) (blocking buffer solution) (250 μl/well). The plate was washed with PBS (washing buffer) containing 0.05% Tween 20 (Nacalai Tesque, Code No. 281-51) four times, and a diluted liquid of the culture supernatant was spread in an amount of 50 μl/well, followed by incubation at room temperature for 1 hour. For preparation of a standard line, recombinant mouse IL-5 (R&D systems, Code No. 405-ML) was employed. The plate was washed with a washing buffer four times, and biotin-labeled rat anti-mouse IL-5 antibody (Pharmingen, Code No. 18062D) as a secondary antibody diluted to 0.5 μg/ml with a blocking buffer containing 0.05% Tween 20 was added thereto (50 μl/well), followed by incubation at room temperature for 1 hour. The plate was washed with a washing buffer four times, strept avidin-labeled peroxidase (ProZyme, Code No. CJ30H001) diluted 800 times with a blocking buffer containing 0.05% Tween 20 was added thereto (50 μl/well), followed by reaction at room temperature for 15 minutes. The plate was washed with a washing buffer four times, and a […] substrate solution (SIGMA, Code No. T-8665) was added thereto in an amount of 100 μl/well for color developing for from 10 to 20 minutes. A 1M sulfuric acid solution was added thereto in an amount of 100 μl/well to terminate the reaction, and absorption (wavelength 450 nm) was measured by means of micro plate reader (SPECTRA max, Wako Pure Chemicals Industries, Ltd.). Quantitative determination of IFN-γ was carried out in the same manner as the measurement of IL-5, employing rat anti-mouse IFN-γ antibody (Pharmingen, Code No. 18181D) and biotin labeled rat anti-mouse IFN-γ antibody (Pharmingen, Code NO. 18112D), as a primary antibody and a secondary antibody, respectively. For preparation of a standard line, recombinant mouse IFN-γ (GENZYME, Code No. 3485) was employed. The experiment was carried out in duplicate, and the average of the cytokine production amount was obtained. […]

[2] = system: interleukin 5 (IL-5) production; assay: Cytokine production inhibitory effect: IL-5 production by murine spleen cells treated with anti-mouse CD3 antibody and IL-2 (ELISA); type: cell-based, Balb/c mice; details: anti-CD3 antibody + IL-2, 40 to 48 hours, read-out: IL-5 production inhibitory ratio (%); for inhibition at 100 ppm: test compound 100 ppm
Description: as §1, §2

| melting point | Structure (SMILES) | inhibition at 100 ppm [1] | inhibition at 100 ppm [2] | inhibition at 2 ppm ([1]; test compound 2 ppm) | inhibition at 2 ppm ([2]; test compound 2 ppm) |
| --- | --- | --- | --- | --- | --- |
| 219 °C | Cc1cc(C23CC4CC(CC(C4)C2)C3)ccc1NC(=O)c1cc([N+](=O)[O-])ccc1Cl [Compound No. 1] | 90% | 96% |  |  |
| 220 to 226 °C | Cc1cc(-c2nc3ccccc3s2)ccc1NC(=O)c1cc([N+](=O)[O-])ccc1Cl [Compound No. 2] |  |  | 84% | 74% |
| 173 °C | COc1ccc([N+](=O)[O-])c(OC)c1C(=O)Nc1cc(Cl)cc(Cl)c1 [Compound No. 4] | 76% | 47% |  |  |
| 103 to 105 °C | COc1cccc(C(=O)Nc2ccc(Oc3ccc(C(F)(F)F)cn3)c(Cl)c2)c1 [Compound No. 10] | 100% | 100% |  |  |
| 174 to 176 °C | O=C(Nc1ccc(Oc2ccc(C(F)(F)F)cn2)c(Cl)c1)c1ccc(F)cc1 [Compound No. 12] |  | 33% |  |  |
| 141 to 143 °C | O=C(Nc1ccc(Oc2ccc(C(F)(F)F)cn2)c(Cl)c1)c1ccccc1F [Compound No. 13] |  | 36% |  |  |
| 128 °C | O=C(Nc1ccc(Oc2ccccc2)cc1)c1cc([N+](=O)[O-])ccc1Cl [Compound No. 27, N-(4-phenoxyphenyl)-2-chloro-5-nitrobenzamide] | 99% | 96% |  |  |
| 229 °C | Cc1cc(C23CC4CC(CC(C4)C2)C3)ccc1NC(=O)c1cc([N+](=O)[O-])ccc1Br [Compound No. 46, N-(4-(1-adamantyl)-2-methylphenyl)-2-bromo-5-nitrobenzamide] | 98% | 100% |  |  |
| 238 °C | Cc1cc(C23CC4CC(CC(C4)C2)C3)ccc1NS(=O)(=O)c1cc([N+](=O)[O-])ccc1Cl [Compound No. 48, N-(4-(1-adamantyl)-2-methylphenyl)-2-chloro-5-nitrobenzenesulfonamide] | 100% | 100% |  |  |
| 230 to 232 °C | Cc1cc(NC(=O)c2cc([N+](=O)[O-])ccc2Cl)ccc1Oc1ncc(C(F)(F)F)cc1Cl [Compound No. 106, N-(4-(3-chloro-5-trifluoromethyl-2-pyridyloxy)-3-methylphenyl)-2-chloro-5-nitrobenzamide] | 96% | 83% |  |  |
| 98 to 105 °C | O=C(Nc1ccc(OC23CC4CC(CC(C4)C2)C3)nc1)c1cc([N+](=O)[O-])ccc1Cl [Compound No. 123, N-(2-(1-adamantyloxy)-5-pyridyl)-2-chloro-5-nitrobenzamide] | 100% | 100% |  |  |
| 165 to 167 °C | O=C(Nc1ccc(Oc2ncc(C(F)(F)F)cc2Cl)c(-n2cccc2)c1)c1cc([N+](=O)[O-])ccc1Cl [Compound No. 127, N-(4-(3-chloro-5-trifluoromethyl-2-pyridyloxy)-3-(1-pyrrolyl)phenyl)-2-chloro-5-nitrobenzamide] | 100% | 100% |  |  |
| 193 to 195 °C | O=C(Nc1ccc(OCc2ncc(C(F)(F)F)cc2Cl)cc1)c1cc([N+](=O)[O-])ccc1Cl [Compound No. 135, N-(4-(3-chloro-5-trifluoromethyl-2-pyridylmethyloxy)phenyl)-2-chloro-5-nitrobenzamide] | 33% | 62% |  |  |
| 211 °C | Cc1cc(C23CC4CC(CC(C4)C2)C3)ccc1NC(=O)c1ccc(Cl)cc1Cl [compound 3] | 92% | 79% |  |  |
| 186 to 188 °C | O=C(Nc1ccc(Oc2ccc(C(F)(F)F)cn2)c(Cl)c1)c1ccc(Cl)cc1 [compound 5] | 83% | 76% |  |  |
| 145 to 147 °C | O=C(Nc1ccc(Oc2ccc(C(F)(F)F)cn2)c(Cl)c1)c1ccc(F)cc1F [compound 11] |  | 37% |  |  |
| 170 to 172 °C | O=C(Nc1ccc(Oc2ccc(C(F)(F)F)cn2)c(Cl)c1)c1ccccc1 [compound 14] |  | 46% |  |  |

| melting point | Structure (SMILES) | inhibition at 100 ppm [1] | inhibition at 100 ppm [2] | inhibition at 2 ppm ([1]; test compound 2 ppm) | inhibition at 2 ppm ([2]; test compound 2 ppm) |
| --- | --- | --- | --- | --- | --- |
| 176 to 178 °C | O=C(Nc1ccc(Oc2ccc(C(F)(F)F)cn2)c(Cl)c1)c1cc(Cl)cc(Cl)c1O [compound 16] |  | 100% |  |  |
|  | Cc1ccccc1NC(=O)c1cc([N+](=O)[O-])ccc1Cl [compound 19] | 88% | 96% |  |  |
| 200 °C | Cc1cc(C23CC4CC(CC(C4)C2)C3)ccc1NS(=O)(=O)c1cc(Cl)ccc1Cl [compound 24] |  | 100% |  |  |
|  | O=C(Nc1ccccc1C(F)(F)F)c1cc([N+](=O)[O-])ccc1Cl [compound 39] | 100% | 97% |  |  |
|  | O=C(Nc1ccc(Nc2ccccc2)cc1)c1cc([N+](=O)[O-])ccc1Cl [compound 65] | 100% | 100% |  |  |
| 168 to 169 °C | O=C(Nc1ccc(Oc2ccc(C(F)(F)F)cn2)c(Cl)c1)c1ccccc1Cl [compound 71] |  | 89% |  |  |
| 206 to 209 °C | O=C(Nc1ccc(Oc2ccc(C(F)(F)F)cn2)c(Cl)c1)c1ccc(Oc2ccc(C(F)(F)F)cn2)c(Cl)c1 [compound 72] |  | 51% |  |  |
|  | O=C(Nc1ccc(Oc2ccc(C(F)(F)F)cc2Cl)cc1)c1cc([N+](=O)[O-])ccc1F [compound 95] | 100% | 100% |  |  |
|  | Cc1cc(C23CC4CC(CC(C4)C2)C3)ccc1N(C)C(=O)c1cc([N+](=O)[O-])ccc1Cl [compound 102] | 100% | 100% |  |  |
|  | O=C(Nc1ccc([S+]([O-])c2ncc(C(F)(F)F)cc2Cl)cc1)c1cc([N+](=O)[O-])ccc1Cl (stereo not drawn) [compound 103] | 100% | 100% |  |  |
|  | O=C(Nc1ccc(S(=O)(=O)c2ncc(C(F)(F)F)cc2Cl)cc1)c1cc([N+](=O)[O-])ccc1Cl [compound 104] | 100% | 100% |  |  |
| 233 to 236 °C | O=C(Nc1ccc(Oc2ncc(C(F)(F)F)cc2Cl)c([N+](=O)[O-])c1)c1cc([N+](=O)[O-])ccc1Cl [compound 108] |  |  |  |  |
|  | O=C(Nc1ccc(Oc2ncc(C(F)(F)F)cc2Cl)c(C2CCCCC2)c1)c1cc([N+](=O)[O-])ccc1Cl [compound 114] | 100% | 100% |  |  |
|  | O=C(Nc1ccc(OC2C3CC4CC(C3)CC2C4)nc1)c1cc([N+](=O)[O-])ccc1Cl (stereo not drawn) [compound 124] | 100% | 100% |  |  |
|  | O=C(Nc1ccc(OC23CC4CC(CC(C4)C2)C3)cc1)c1cc([N+](=O)[O-])ccc1Cl [compound 134] | 98% | 97% |  |  |
|  | O=C(Nc1ccc(NC23CC4CC(CC(C4)C2)C3)nc1)c1cc([N+](=O)[O-])ccc1Cl [compound 147] | 100% | 99% |  |  |
